Results on 5 compounds are retold here after patent US20240384232A1, “CLINICAL-GRADE THERAPEUTIC PROGENITORS GENERATED FROM TANKYRASE/PARP-INHIBITED PLURIPOTENT STEM CELL BANKS” (THE JOHNS HOPKINS UNIVERSITY, priority 2022, published 2024).

Entries after “also recorded” stand apart in the source; their conditions may differ.

Experiment [1] relates to Primed E8 and LIF-4i UTIRN-hiPSC. Nature of the experiment: DNA damage induction with radiomimetic, Western blot of DNA repair machinery. In kind it is cell-based, human. As to conditions: 4 hours treatment; TIRN-hPSC vs primed E8 hPSC. From the text: FIGS. 20A-20B. Induction of DNA damage in primed hPSC and XF/FF UTIRN-hPSC following exposure to the radiomimetic DNA damage inducing agent neocarzinostatin (NCS). Unlike somatic cells, naïve mouse embryonic stem cells (ESC) employ homologous recombination machinery to repair double strand breaks. However, imbalanced levels of DNAPKc in mouse ESC results into poor capacity for rejoining of radiation-induced DNA double-strand breaks in comparison to human primed ESC.
Methods. Conventional (primed) XF CB-hiPSC lines and control H9 hESC were grown in E8 medium. Isogenic TIRN-hPSC were cultured in parallel using LIF-4i. For Western blotting, whole cell lysates were prepared in RIPA buffer, 1.5 mM EDTA with protease inhibitor. Protein lysates were quantified using the BCA assay. Equal amounts of total protein lysate (e.g., 20 μg) were loaded into precast polyacrylamide gradient gels, size-separated using the Mini-PROTEAN electrophoresis system and blotted onto PDVF membranes for chemiluminescent analysis. Primed hPSC and isogenic TIRN-hPSC were assayed for endogenous DNA damage during routine culture (FIG. 20) or upon DSB induction using the radiomimetic agent neocarzinostatin (NCS). In these experiments, hPSC were treated for 4 hours with NCS before preparing lysates. […]
In general terms: In western blotting, separated proteins are transferred to a membrane and probed.

Experiment [2] deals with LIF-4i UTIRN-CB-hiPSC (E32C6XF). In words: Cell attachment during passaging onto Vitronectin-XF-coated plates. In kind it is cell-based, human. As to conditions: overnight exposure, 2-5 uM. The source says: FIGS. 9A-9C. Optimization of the transition step from E8 primed hPSC conditions to LIF-4i TIRN conditions: clonal cell passaging. (9A) Clonal efficiency during the first passage in LIF-4i TIRN conditions for hESC line (RUES01). Supplementation of LIF-3i with forskolin and purmophamine (i.e., LIF-5i) and brief adaptation of primed hPSC was previously shown to facilitate clonal transition and survival of primed cells to TIRN hPSC when subsequently cultured continuously in LIF-3i TIRN conditions on feeders. […] Therefore, the brief LIF-5i adaptation period was limited to only overnight exposure prior to passaging. […] (9A—middle, right panels) In contrast, high density culture in E8 (e.g., up to 6 days) prior to passaging in LIF-4i negatively impacted the transition into LIF-4i TIRN conditions. Photomicrographs represent primed cultures immediately prior to passaging into LIF-4i TIRN conditions. (9B) Requirement for ROCK inhibitor Y27632during passaging.
FIG. 7A outlines the transition between primed (i.e. E8) and the LIF-4i FF-TIRN-reverted system. Upon passaging into LIF-4i, hPSC immediately adopt a smaller dome-shaped morphology that expands from single cells. Photomicrographs document the morphology of the hiPSC line 6.2 during the first passages into LIF-4i (bulk passaging without colony picking) and after stable expansion for 10 consecutive passages (FIG. 7B). […]

A further experiment has as its system E5C3 CB-hiPSC. Nature of the experiment: Retention of TRA-1-81+SSEA4+ phenotype by FACS after removing single inhibitors from LIF-4i. In kind it is cell-based, human. As to conditions: for Effect of removing the inhibitor from LIF-4i on the TRA-1-81+SSEA4+ phenotype: E5C3 kept in LIF-4i for 3 passages (6 days), then inhibitor removed, feeder-free. From the text: FIGS. 8A-8C. […] Alternatively, E5C3 CB-hiPSC were maintained in LIF-4i for 3passages (6 days) and then cither XAV939 (E5C3-XAV939, square datapoints, dotted line) or Go6983 (E5C3 LIF-3i, triangles, dashed line) were removed from the LIF-4i formulation. […] (8B) Representative photomicrographs and flow cytometry plots of CB-hiPSC when continuously cultured in LIF-4i (LIF+4i, 6 passages), or when cultured in LIF-4i for 3 passages and then transferred into FF conditions that omitted for 3 passages the PKC inhibitor Go6983 (LIF+3i) or the tankyrase/PARP inhibitor XAV939 (without XAV939) or without XAV939 and reducing the concentration of CHIR99021 (without XAV939, CHIR 1 uM).
Background: A flow cytometer gives signals particle by particle.

The test system of experiment [3] is tankyrases 1 and 2 (TANK 1/2) and AXIN-1 proteins. In words: Western blot of tankyrase-regulated proteins in primed vs LIF-4i TIRN cultures. It counts as cell-based, human. To be noted: LIF-4i (contains XAV939) vs isogenic primed E8.
Method: Western blots were performed of primed vs. TIRN lysates of hESC RUES02 and three independent XF/FF UTIRN CB-hiPSC lines (E32C1XF, E32C4XF, E32C6XF). ACTIN, HSP90 and total STAT3 served as internal loading controls. Western blots of XAV939-inhibited proteolysis of tankyrases 1 and 2(TANK 1/2) and AXIN-1 proteins in isogenic primed vs. TIRN conditions for TIRN-reverted RUES02 and XF/FF CB-hiPSC lines. Western blot analysis of hPSC lines in primed (E8) and naïve (LIF-4i) cultures for expression of phosphorylated (phospho.) STAT3 and ERK1/2, tankyrase 1/2 and axin1.
Cell lysates were prepared from parallel primed (E8) and TIRN (LIF-4i) cultures and 20 or 35 ug of proteins were loaded per lane.
Experiment [4] concerns tankyrase PARylating activity and PARP1-mediated PARylation. As to conditions: 293T cells; cited from earlier work.

As for neocarzinostatin [NCS], the “phospho-H2AX response to DSB induction” value in experiment [1] is “elevated levels of phospho-H2AX”.
For the compound `C[C@@H](N)[C@H]1CC[C@H](C(=O)Nc2ccncc2)CC1` [Y-27632], the “Promotion of cell attachment during passaging” value in experiment [2] was “sufficient and required to promote efficient attachment”.
On to `Cc1cnc(-c2cnc(NCCNc3ccc(C#N)cn3)nc2-c2ccc(Cl)cc2Cl)[nH]1` [CHIR99021, 6-[[2-[[4-(2,4-Dichlorophenyl)-5-(5-methyl-1H-imidazol-2-yl)-2-pyrimidinyl]amino]ethyl]amino]-3-pyridinecarbonitrile], for which the “Rescue of XAV939 depletion by reduced CHIR99021 concentration” value with E5C3 CB-hiPSC (E5C3, without XAV939, CHIR99021 @ 1 uM) is reported as “not rescued”.
For the compound `COc1ccc2c(c1)c(C1=C(c3c[nH]c4ccccc34)C(=O)NC1=O)cn2CCCN(C)C` [Go6983], the “Effect of removing the inhibitor from LIF-4i on the TRA-1-81+SSEA4+ phenotype” value in the experiment on E5C3 CB-hiPSC is “hiPSC started differentiating after a few days without Go6983”.
On to `Oc1nc(-c2ccc(C(F)(F)F)cc2)nc2c1CSCC2` [XAV939], for which, in experiment [3], the “Levels of tankyrase-PARylation-regulated proteins (AXIN1, tankyrases)” value is “tankyrase auto-PARylation and proteolysis is inhibited by XAV939; also recorded: upregulated”. Moreover, the “Effect on tankyrase and PARP1-mediated PARylation” value in experiment [4] is recorded as “downregulate tankyrase PARylating activity, but also PARP1-mediated PARylation”. Besides, the “Effect of removing the inhibitor from LIF-4i on the TRA-1-81+SSEA4+ phenotype” value in the experiment on E5C3 CB-hiPSC was “rapid loss of TRA-1-81 and SSEA4 expression”.
